Test results from ChEMBL document CHEMBL1201862, “PubChem BioAssay data set” (2004).
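Five concentrations, 48 hours, 96-well plates. GI50 = concentration required for 50% inhibition of growth.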 Calls of active or inactive are those of the source. Rule as the data show it: active = GI50 up to about 1.1 µM and inactive = higher.

Columns and labels:
Assay in all cases: inhibition of tumour cell growth, NCI panel, 48 h
MCF7 = test system: MCF7
SW-620 = test system: SW-620
786-0 = test system: 786-0
HOP-62 = test system: HOP-62
LOX IMVI = test system: LOX IMVI
HOP-92 = test system: HOP-92
KM12 = test system: KM12
SK-MEL-28 = test system: SK-MEL-28
SNB-75 = test system: SNB-75
SN12C = test system: SN12C
NCI-H226 = test system: NCI-H226
COLO 205 = test system: COLO 205
OVCAR-3 = test system: OVCAR-3
HCC 2998 = test system: HCC 2998
HCT-15 = test system: HCT-15
OVCAR-8 = test system: OVCAR-8
SNB-19 = test system: SNB-19
TK-10 = test system: TK-10
Malme-3M = test system: Malme-3M
MDA-MB-435 = test system: MDA-MB-435

Compound | GI50 (MCF7) | GI50 (SW-620) | GI50 (786-0) | GI50 (HOP-62) | GI50 (LOX IMVI) | GI50 (HOP-92) | GI50 (KM12) | GI50 (SK-MEL-28) | GI50 (SNB-75) | GI50 (SN12C) | GI50 (NCI-H226) | GI50 (COLO 205) | GI50 (OVCAR-3) | GI50 (HCC 2998) | GI50 (HCT-15) | GI50 (OVCAR-8) | GI50 (SNB-19) | GI50 (TK-10) | GI50 (Malme-3M) | GI50 (MDA-MB-435)
NS(=O)(=O)c1cc(C(=O)O)c(Cl)c([N+](=O)[O-])c1Cl | > 100 µM (inactive) | > 100 µM (inactive) | > 100 µM (inactive) | > 100 µM (inactive) | > 100 µM (inactive) | > 100 µM (inactive) | > 100 µM (inactive) | > 100 µM (inactive) | > 100 µM (inactive) | > 100 µM (inactive) | > 100 µM (inactive) | > 100 µM (inactive) | > 100 µM (inactive) | > 100 µM (inactive) | > 100 µM | > 100 µM (inactive) | > 100 µM (inactive) | > 100 µM (inactive) | > 100 µM (inactive) | > 100 µM (inactive)
CC(=O)O[C@H]1[C@@H](N2CCOCC2)C[C@H]2[C@@H]3CC=C4C[C@@H](N5CCCC5)CC[C@]4(C)[C@H]3CC[C@@]21C | > 100 µM (inactive) | > 100 µM (inactive) | > 100 µM (inactive) | > 100 µM (inactive) | > 100 µM (inactive) | 85.9 µM (inactive) | > 100 µM (inactive) | > 100 µM (inactive) | > 100 µM (inactive) | > 100 µM (inactive) | > 100 µM (inactive) | > 100 µM (inactive) | > 100 µM (inactive) | 48.8 µM (inactive) | > 100 µM | > 100 µM (inactive) | > 100 µM (inactive) | > 100 µM (inactive) | > 100 µM (inactive) | > 100 µM (inactive)
Fc1c(F)c(F)c2c(c1F)CSc1nc3ccccc3n1-2 | > 100 µM (inactive) | > 100 µM (inactive) | > 100 µM (inactive) | > 100 µM (inactive) | > 100 µM (inactive) | > 100 µM (inactive) | > 100 µM (inactive) | > 100 µM (inactive) | > 100 µM (inactive) | > 100 µM (inactive) | > 100 µM (inactive) | > 100 µM (inactive) | > 100 µM (inactive) | > 100 µM (inactive) | > 100 µM | > 100 µM (inactive) | > 100 µM (inactive) | > 100 µM (inactive) | > 100 µM (inactive) | > 100 µM (inactive)
Cn1c2c(c3ccccc31)CC(=O)N1CCCC(C1)CC21OCCO1 (stereo not given) | > 100 µM (inactive) | > 100 µM (inactive) | > 100 µM (inactive) | > 100 µM (inactive) | > 100 µM (inactive) | > 100 µM (inactive) | > 100 µM (inactive) | > 100 µM (inactive) | > 100 µM (inactive) | 38.2 µM (inactive) | > 100 µM (inactive) | > 100 µM (inactive) | > 100 µM (inactive) | > 100 µM (inactive) | > 100 µM | > 100 µM (inactive) | > 100 µM (inactive) | > 100 µM (inactive) | > 100 µM (inactive) | > 100 µM (inactive)
Cc1cc(S(=O)(=O)NC2=Nc3ccc(Cl)cc3C(c3ccccc3)N2)c(S)cc1Cl (stereo not given) | > 100 µM (inactive) | > 100 µM (inactive) | > 100 µM (inactive) | 81.3 µM (inactive) | 47.5 µM (inactive) | > 100 µM (inactive) | 92.9 µM (inactive) | > 100 µM (inactive) | > 100 µM (inactive) | > 100 µM (inactive) | 15.4 µM (inactive) | > 100 µM (inactive) | > 100 µM (inactive) | > 100 µM (inactive) | 67.1 µM | > 100 µM (inactive) | 28.5 µM (inactive) | > 100 µM (inactive) | > 100 µM (inactive) | > 100 µM (inactive)
COc1ccccc1C(=O)Nc1ccc(Cl)c(C(=O)OC(C)C)c1 | 42 µM (inactive) | > 61.1 µM (inactive) | 38 µM (inactive) | 48 µM (inactive) | 43 µM (inactive) | 42.3 µM (inactive) | 25.9 µM (inactive) | 36.2 µM (inactive) | 35.4 µM (inactive) | 52.2 µM (inactive) | 47.4 µM (inactive) | > 61.5 µM (inactive) | > 46.1 µM (inactive) | > 63.7 µM (inactive) | 32.1 µM | > 63 µM (inactive) | > 65.3 µM (inactive) | > 80 µM (inactive) | 4.45 µM (inactive) | > 100 µM (inactive)
O=C1OC2(C(F)(F)F)Oc3ccccc3CN2C12CCCCC2 (stereo not given) | 39.1 µM (inactive) | 35.6 µM (inactive) | 35.3 µM (inactive) | 29.2 µM (inactive) | 22.4 µM (inactive) | 24.9 µM (inactive) | 23.8 µM (inactive) | 55.2 µM (inactive) | 16 µM (inactive) | 24.7 µM (inactive) | 27.4 µM (inactive) | 18.7 µM (inactive) | 28.6 µM (inactive) | 33.1 µM (inactive) | 28.2 µM | 36.3 µM (inactive) | 36.3 µM (inactive) | 46.2 µM (inactive) | 18 µM (inactive) | 39.6 µM (inactive)
COC(=O)c1c(C)[nH]c2c1cc(O)c1nc(C)c(C)nc12 | 50.9 µM (inactive) | > 100 µM (inactive) | > 100 µM (inactive) | 18.7 µM (inactive) | > 100 µM (inactive) | 37.9 µM (inactive) | > 100 µM (inactive) | > 100 µM (inactive) | 19.5 µM (inactive) | > 100 µM (inactive) | > 100 µM (inactive) | > 100 µM (inactive) | > 100 µM (inactive) | > 100 µM (inactive) | > 100 µM | > 100 µM (inactive) | > 100 µM (inactive) | 29.2 µM (inactive) | > 100 µM (inactive) | > 100 µM (inactive)
CC(C)(C)OC(=O)NCC(=O)N(CCc1ccc(Cl)c(Cl)c1)CCN1CCCC1 | 16.4 µM (inactive) | 16.6 µM (inactive) | 14 µM (inactive) | 13.5 µM (inactive) | 14.6 µM (inactive) | 3.78 µM (inactive) | 16.3 µM (inactive) | 13 µM (inactive) | 17.5 µM (inactive) | 17.3 µM (inactive) | 15 µM (inactive) | 13.6 µM (inactive) | 16.7 µM (inactive) | 5.14 µM (inactive) | 17.7 µM | 18 µM (inactive) | 17.8 µM (inactive) | 17.1 µM (inactive) | 19.8 µM (inactive) | 13.9 µM (inactive)
CSC(=S)N/N=C(\C)c1ccc(S(=O)(=O)N(C)c2ccccc2)cc1 | 18.2 µM (inactive) | 41.9 µM (inactive) | 34.4 µM (inactive) | 56.5 µM (inactive) | 18.3 µM (inactive) | 23.8 µM (inactive) | 21.9 µM (inactive) | 34.8 µM (inactive) | 39.3 µM (inactive) | > 100 µM (inactive) | 20.1 µM (inactive) | 68.4 µM (inactive) | 16.7 µM (inactive) | > 100 µM (inactive) | 34.2 µM | 31.6 µM (inactive) | 26.4 µM (inactive) | > 100 µM (inactive) | 2.07 µM (inactive) | 22.9 µM (inactive)
C#C[C@]1(O)CC[C@H]2[C@@H]3CCC4=C/C(=N\OCCN5CCCCC5)CC[C@]4(C)[C@H]3CC[C@@]21C | 3.34 µM (inactive) | 4.33 µM (inactive) | 3.63 µM (inactive) | 11 µM (inactive) | 3.58 µM (inactive) | 15 µM (inactive) | 3.44 µM (inactive) | 8.13 µM (inactive) | 4.3 µM (inactive) | 6.89 µM (inactive) | 17.2 µM (inactive) | 2.12 µM (inactive) | 5.15 µM (inactive) | 12.8 µM (inactive) | 7.31 µM | 8.02 µM (inactive) | 6.9 µM (inactive) | 7.28 µM (inactive) | 8.79 µM (inactive) | 2.24 µM (inactive)
C=CCOC1=C(OC(C)=O)C(C2COC(C)(C)O2)OC1=O (stereo not given) | 16.7 µM (inactive) | 16.5 µM (inactive) | 18.7 µM (inactive) | > 100 µM (inactive) | 11.7 µM (inactive) | 17.7 µM (inactive) | 20.7 µM (inactive) | 22.2 µM (inactive) | 71.3 µM (inactive) | 24.5 µM (inactive) | 95.3 µM (inactive) | 20 µM (inactive) | 17.9 µM (inactive) | 38.2 µM (inactive) | 16.3 µM | 38.8 µM (inactive) | > 100 µM (inactive) | 29.7 µM (inactive) | 18.8 µM (inactive) | 21.9 µM (inactive)
C=C(C)C(O)C(O)C[C@@H](C)C1CC[C@]23C[C@]12CCC1[C@@]2(C)CCC(OC(C)=O)C(C)(C)C2CC(OC2OC(CO)C(O)C(O)C2O)[C@]13C (stereo not given in full) | 17 µM (inactive) | 16.7 µM (inactive) | 19.1 µM (inactive) | 16.7 µM (inactive) | 17.6 µM (inactive) | 12.9 µM (inactive) | 17.7 µM (inactive) | 22.5 µM (inactive) | 19.6 µM (inactive) | 16.8 µM (inactive) | 20.6 µM (inactive) | 17.6 µM (inactive) | 17.6 µM (inactive) | 15.7 µM (inactive) | 40.9 µM | 19.5 µM (inactive) | 20 µM (inactive) | 20.8 µM (inactive) | 17.5 µM (inactive) | 17.5 µM (inactive)
Cn1c(O)c(C2=Nc3ccccc3C2=O)c2ccccc21 | > 100 µM (inactive) | > 100 µM (inactive) | > 100 µM (inactive) | > 100 µM (inactive) | > 100 µM (inactive) | > 100 µM (inactive) | > 100 µM (inactive) | > 100 µM (inactive) | > 100 µM (inactive) | > 100 µM (inactive) | > 100 µM (inactive) | > 100 µM (inactive) | > 100 µM (inactive) | > 100 µM (inactive) | > 100 µM | > 100 µM (inactive) | > 100 µM (inactive) | > 100 µM (inactive) | > 100 µM (inactive) | > 100 µM (inactive)
